Test results as given in EP3154958B1, “PHOSPHATIDYLINOSITOL 3-KINASE INHIBITORS” (Gilead Sciences, Inc., priority 2014, dated 2015).
Where two headings read alike, the source gives them in different places.

What was measured:
Type in all cases: biochemical
PI3Kβ = biological target: T1, PI3Kβ (Homo sapiens, UniProt P42338); experiment: TR-FRET enzymatic activity assay, PI3Kβ
T1 construct: made in house
Description: (§1) The compounds of formula (I) were characterized for their enzymatic activity against the PI3K isoforms. The activities were measured using a time-resolved fluorescence resonance energy transfer (TR-FRET) assay.

PI3Kδ = biological target: T2, PI3Kδ (Homo sapiens, UniProt O00329); experiment: TR-FRET enzymatic activity assay, PI3Kδ
T2 construct: made in house
T2 sequence (O00329 whole entry): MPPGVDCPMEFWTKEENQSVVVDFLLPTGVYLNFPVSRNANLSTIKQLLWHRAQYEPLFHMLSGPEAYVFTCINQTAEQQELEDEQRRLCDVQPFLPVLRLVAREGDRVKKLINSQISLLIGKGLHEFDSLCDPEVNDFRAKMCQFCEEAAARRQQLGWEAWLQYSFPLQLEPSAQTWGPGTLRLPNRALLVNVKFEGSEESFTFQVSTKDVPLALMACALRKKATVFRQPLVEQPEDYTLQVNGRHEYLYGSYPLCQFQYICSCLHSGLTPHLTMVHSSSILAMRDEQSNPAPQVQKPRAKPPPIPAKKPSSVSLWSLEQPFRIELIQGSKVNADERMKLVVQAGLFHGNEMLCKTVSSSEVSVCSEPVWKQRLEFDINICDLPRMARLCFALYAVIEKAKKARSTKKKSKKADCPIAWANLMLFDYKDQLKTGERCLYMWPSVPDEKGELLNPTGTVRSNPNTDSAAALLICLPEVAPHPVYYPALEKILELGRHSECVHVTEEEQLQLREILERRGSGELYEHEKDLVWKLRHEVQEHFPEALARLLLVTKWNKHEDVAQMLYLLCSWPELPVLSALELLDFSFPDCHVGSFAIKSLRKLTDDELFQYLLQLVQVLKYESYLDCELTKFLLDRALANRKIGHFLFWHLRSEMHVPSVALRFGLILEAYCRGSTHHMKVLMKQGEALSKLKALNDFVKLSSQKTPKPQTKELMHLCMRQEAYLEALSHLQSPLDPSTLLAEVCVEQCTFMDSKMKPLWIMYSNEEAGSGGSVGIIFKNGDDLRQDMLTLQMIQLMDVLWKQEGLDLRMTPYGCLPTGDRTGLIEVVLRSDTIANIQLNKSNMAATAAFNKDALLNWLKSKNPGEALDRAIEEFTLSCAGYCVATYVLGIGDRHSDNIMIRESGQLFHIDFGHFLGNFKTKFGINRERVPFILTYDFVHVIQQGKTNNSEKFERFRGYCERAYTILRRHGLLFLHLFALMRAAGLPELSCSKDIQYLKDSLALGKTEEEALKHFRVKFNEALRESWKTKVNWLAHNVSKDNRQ
T2 sequence (P27986 whole entry partner): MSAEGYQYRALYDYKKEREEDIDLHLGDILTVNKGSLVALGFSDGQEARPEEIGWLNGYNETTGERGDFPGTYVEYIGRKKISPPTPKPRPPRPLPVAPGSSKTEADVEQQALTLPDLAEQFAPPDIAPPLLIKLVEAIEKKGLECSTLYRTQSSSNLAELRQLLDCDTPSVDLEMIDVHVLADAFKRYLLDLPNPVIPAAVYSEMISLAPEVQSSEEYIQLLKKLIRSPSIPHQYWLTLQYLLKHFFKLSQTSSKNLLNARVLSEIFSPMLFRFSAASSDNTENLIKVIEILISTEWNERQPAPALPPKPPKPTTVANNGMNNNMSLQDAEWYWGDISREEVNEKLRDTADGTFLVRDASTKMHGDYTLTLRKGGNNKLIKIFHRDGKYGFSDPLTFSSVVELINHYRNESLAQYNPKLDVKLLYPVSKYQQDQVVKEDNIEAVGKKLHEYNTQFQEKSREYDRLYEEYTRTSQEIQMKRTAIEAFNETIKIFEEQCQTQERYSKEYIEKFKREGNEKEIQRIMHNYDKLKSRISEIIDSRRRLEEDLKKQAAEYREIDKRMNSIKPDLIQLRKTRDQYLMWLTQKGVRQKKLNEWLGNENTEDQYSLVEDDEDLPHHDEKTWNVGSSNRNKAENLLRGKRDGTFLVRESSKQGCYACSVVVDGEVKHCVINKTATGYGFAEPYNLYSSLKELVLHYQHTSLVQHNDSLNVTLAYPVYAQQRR
Description: as §1

PI3Kγ = biological target: T3, PI3Kγ (Homo sapiens, UniProt P48736); experiment: TR-FRET enzymatic activity assay, PI3Kγ
T3 construct: made in house
T3 sequence (P48736 whole entry): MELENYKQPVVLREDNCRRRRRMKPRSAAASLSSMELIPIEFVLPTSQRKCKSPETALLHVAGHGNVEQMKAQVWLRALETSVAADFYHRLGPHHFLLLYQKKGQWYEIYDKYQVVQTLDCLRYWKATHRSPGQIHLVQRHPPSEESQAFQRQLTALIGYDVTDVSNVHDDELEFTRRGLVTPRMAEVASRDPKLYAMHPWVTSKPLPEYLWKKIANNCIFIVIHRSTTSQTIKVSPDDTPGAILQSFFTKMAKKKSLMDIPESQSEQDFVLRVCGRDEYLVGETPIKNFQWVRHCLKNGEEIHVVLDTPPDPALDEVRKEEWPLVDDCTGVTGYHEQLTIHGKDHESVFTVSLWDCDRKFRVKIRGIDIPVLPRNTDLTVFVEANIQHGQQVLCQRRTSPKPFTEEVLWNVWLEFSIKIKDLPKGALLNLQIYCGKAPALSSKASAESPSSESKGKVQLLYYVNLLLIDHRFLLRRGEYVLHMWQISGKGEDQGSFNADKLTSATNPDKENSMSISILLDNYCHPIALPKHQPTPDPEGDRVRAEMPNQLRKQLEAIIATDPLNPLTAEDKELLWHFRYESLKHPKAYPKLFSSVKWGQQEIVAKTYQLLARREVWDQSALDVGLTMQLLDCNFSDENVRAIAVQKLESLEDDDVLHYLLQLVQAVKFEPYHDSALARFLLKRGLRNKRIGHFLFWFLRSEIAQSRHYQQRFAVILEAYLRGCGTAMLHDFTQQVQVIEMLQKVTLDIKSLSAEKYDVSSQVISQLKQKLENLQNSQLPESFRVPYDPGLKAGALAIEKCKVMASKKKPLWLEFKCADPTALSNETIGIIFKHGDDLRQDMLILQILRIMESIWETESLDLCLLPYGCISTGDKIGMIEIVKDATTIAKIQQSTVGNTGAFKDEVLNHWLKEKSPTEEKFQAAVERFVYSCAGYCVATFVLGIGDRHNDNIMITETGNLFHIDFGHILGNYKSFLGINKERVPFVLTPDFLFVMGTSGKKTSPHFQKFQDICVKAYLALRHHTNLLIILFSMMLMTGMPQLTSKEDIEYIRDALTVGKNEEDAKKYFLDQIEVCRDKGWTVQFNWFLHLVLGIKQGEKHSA
T3 sequence (Q8WYR1 whole entry partner): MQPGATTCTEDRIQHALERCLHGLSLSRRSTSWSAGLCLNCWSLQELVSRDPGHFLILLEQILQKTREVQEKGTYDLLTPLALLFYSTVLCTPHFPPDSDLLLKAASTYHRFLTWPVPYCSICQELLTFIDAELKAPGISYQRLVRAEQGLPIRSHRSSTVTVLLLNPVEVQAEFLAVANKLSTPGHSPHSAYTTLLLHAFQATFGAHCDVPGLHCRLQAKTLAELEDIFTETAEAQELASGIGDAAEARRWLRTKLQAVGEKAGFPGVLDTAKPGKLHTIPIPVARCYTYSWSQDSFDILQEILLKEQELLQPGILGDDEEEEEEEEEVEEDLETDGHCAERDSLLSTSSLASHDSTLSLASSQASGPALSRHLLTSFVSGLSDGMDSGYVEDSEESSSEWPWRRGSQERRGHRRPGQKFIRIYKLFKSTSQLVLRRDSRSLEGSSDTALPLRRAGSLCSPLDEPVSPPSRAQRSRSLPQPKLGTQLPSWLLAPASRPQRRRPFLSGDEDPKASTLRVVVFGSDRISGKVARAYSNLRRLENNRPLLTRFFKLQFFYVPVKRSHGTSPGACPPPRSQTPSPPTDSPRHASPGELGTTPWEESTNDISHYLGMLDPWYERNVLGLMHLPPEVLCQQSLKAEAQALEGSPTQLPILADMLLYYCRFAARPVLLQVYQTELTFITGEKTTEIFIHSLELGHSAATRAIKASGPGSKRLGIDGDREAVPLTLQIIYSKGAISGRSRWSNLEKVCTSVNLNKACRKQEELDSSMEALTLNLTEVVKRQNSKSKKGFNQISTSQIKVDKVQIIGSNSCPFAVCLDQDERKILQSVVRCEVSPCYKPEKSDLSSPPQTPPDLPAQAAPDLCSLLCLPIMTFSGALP
Description: as §1

[1] = recombinant heterodimeric PI3Kβ 25-50 pM, 2× Km ATP, 30 minutes at 25°C
[2] = recombinant heterodimeric PI3Kδ 25-50 pM, 2× Km ATP, 30 minutes at 25°C
[3] = recombinant heterodimeric PI3Kγ 2 nM, 2× Km ATP, 30 minutes at 25°C

T1 sequence (P42338 whole entry): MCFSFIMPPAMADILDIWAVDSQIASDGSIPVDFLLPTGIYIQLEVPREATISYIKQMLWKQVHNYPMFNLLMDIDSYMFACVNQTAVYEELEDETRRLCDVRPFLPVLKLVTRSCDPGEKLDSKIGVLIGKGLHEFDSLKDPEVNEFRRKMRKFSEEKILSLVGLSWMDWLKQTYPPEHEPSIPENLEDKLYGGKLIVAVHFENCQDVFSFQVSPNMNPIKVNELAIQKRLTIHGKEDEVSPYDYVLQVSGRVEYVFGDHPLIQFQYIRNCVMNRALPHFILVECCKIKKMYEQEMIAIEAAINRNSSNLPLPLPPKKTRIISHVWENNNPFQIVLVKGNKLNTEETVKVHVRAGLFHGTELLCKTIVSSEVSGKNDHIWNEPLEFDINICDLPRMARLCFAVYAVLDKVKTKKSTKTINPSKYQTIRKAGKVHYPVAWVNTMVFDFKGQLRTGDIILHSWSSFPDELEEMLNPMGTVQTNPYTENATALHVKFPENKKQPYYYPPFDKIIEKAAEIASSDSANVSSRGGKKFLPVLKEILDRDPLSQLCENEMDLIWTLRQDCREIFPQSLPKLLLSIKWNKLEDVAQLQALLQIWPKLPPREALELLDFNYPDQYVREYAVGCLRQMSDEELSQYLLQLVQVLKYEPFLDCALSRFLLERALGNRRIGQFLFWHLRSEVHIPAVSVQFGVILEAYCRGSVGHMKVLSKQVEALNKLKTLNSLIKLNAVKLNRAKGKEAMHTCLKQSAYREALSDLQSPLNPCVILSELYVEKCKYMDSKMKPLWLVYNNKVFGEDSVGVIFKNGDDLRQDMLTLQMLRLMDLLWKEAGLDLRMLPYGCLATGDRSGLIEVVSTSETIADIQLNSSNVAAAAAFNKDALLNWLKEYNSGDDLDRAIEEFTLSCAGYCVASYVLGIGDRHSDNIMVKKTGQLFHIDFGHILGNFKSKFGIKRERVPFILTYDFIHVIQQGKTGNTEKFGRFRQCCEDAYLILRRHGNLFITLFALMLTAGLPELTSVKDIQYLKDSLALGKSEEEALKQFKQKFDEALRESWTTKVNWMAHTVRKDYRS
T1 sequence (P27986 whole entry partner): as the sequence (P27986 whole entry partner) above

IC50 (PI3Kβ) [nM] | IC50 (PI3Kδ) [nM] | IC50 (PI3Kγ) [nM] | IC50 (PI3Kβ; [1]) [nM] | IC50 (PI3Kδ; [2]) [nM] | IC50 (PI3Kγ; [3]) [nM] | SMILES
 |  |  | 5600 | 830 | > 10000 | C[C@H](Nc1nc(N)nc(N)c1C#N)c1nc2cccc(Cl)c2c(=O)n1[C@@H]1CCCNC1 (stereo in doubt) [Compound 27, 2,4-diamino-6-(((S)-1-(5-chloro-4-oxo-3-((R)-piperidin-3-yl)-3,4-dihydroquinazolin-2-yl)ethyl)amino)pyrimidine-5-carbonitrile]
 |  |  | 1300 | 390 | > 10000 | N#Cc1c(N)nc(N)nc1N1CCC[C@@H]1c1nc2cccc(F)c2c(=O)n1N1CCN(Cc2ccccc2)CC1 (stereo in doubt) [Compound 124, (R)-2,4-diamino-6-(2-(3-(4-benzylpiperazin-1-yl)-5-fluoro-4-oxo-3,4-dihydroquinazolin-2-yl)pyrrolidin-1-yl)pyrimidine-5-carbonitrile]
 |  |  | 30 | 21 | 1740 | CN1CCN(n2c([C@@H](Nc3nc(N)nc(N)c3C#N)C3CC3)nc3cccc(Cl)c3c2=O)CC1 [Compound 1, (S)-2,4-diamino-6-(((5-chloro-3-(4-methylpiperazin-1-yl)-4-oxo-3,4-dihydroquinazolin-2-yl)(cyclopropyl)methyl)amino)pyrimidine-5-carbonitrile]
 |  |  | 950 | 260 | > 10000 | CN1CCN(n2c([C@@H](Nc3nc(N)nc(N)c3Cl)C3CC3)nc3cccc(Cl)c3c2=O)CC1 [Compound 2, (S)-5-chloro-2-(cyclopropyl((2,6-diamino-5-chloropyrimidin-4-yl)amino)methyl)-3-(4-methylpiperazin-1-yl)quinazolin-4(3H)-one]
 |  |  | 8 | 12 | 580 | C[C@H](Nc1nc(N)nc(N)c1C#N)c1nc2cccc(Cl)c2c(=O)n1N1CCN(Cc2ccccc2)CC1 [Compound 3, (S)-2,4-diamino-6-((1-(3-(4-benzylpiperazin-1-yl)-5-chloro-4-oxo-3,4-dihydroquinazolin-2-yl)ethyl)amino)pyrimidine-5-carbonitrile]
 |  |  | 190 | 19 | > 10000 | C[C@H](Nc1ncnc(N)c1C#N)c1nc2cccc(Cl)c2c(=O)n1N1CCN(C)CC1 [Compound 5, (S)-4-amino-6-((1-(5-chloro-3-(4-methylpiperazin-1-yl)-4-oxo-3,4-dihydroquinazolin-2-yl)ethyl)amino)pyrimidine-5-carbonitrile]
27 | 6 |  | 4 | 3 |  | C[C@H](Nc1nc(N)nc(N)c1C#N)c1nc2c(Cl)ccc(Cl)c2c(=O)n1N1CCNCC1 [Compound 53, (S)-2,4-diamino-6-((1-(5,8-dichloro-4-oxo-3-(piperazin-1-yl)-3,4-dihydroquinazolin-2-yl)ethyl)amino)pyrimidine-5-carbonitrile]
 |  |  |  |  | 710 | C[C@H](Nc1nc(N)nc(N)c1C#N)c1nc2cccc(Cl)c2c(=O)n1N1CCNCC1 [Compound 57, (S)-2,4-diamino-6-((1-(5-chloro-4-oxo-3-(piperazin-1-yl)-3,4-dihydroquinazolin-2-yl)ethyl)amino)pyrimidine-5-carbonitrile]

Continued, compound first:

SMILES | IC50 (PI3Kβ) [nM] | IC50 (PI3Kδ) [nM] | IC50 (PI3Kγ) [nM] | IC50 (PI3Kβ; [1]) [nM] | IC50 (PI3Kδ; [2]) [nM] | IC50 (PI3Kγ; [3]) [nM]
Cc1nc(N)nc(N[C@H](c2nc3cccc(Cl)c3c(=O)n2C2[C@H]3CNC[C@@H]23)C2CC2)c1C#N (stereo in doubt) [Compound 14, 4-(((1S)-(3-((1R,5S)-3-azabicyclo[3.1.0]hexan-6-yl)-5-chloro-4-oxo-3,4-dihydroquinazolin-2-yl)(cyclopropyl)methyl)amino)-2-amino-6-methylpyrimidine-5-carbonitrile] | 0.4 | 0.3 | 480 |  |  | 
N#Cc1c(N)nc(N)nc1N[C@H](c1nc2cccc(Cl)c2c(=O)n1C1[C@H]2CNC[C@@H]12)C1CC1 (stereo in doubt) [Compound 15, 4-(((1S)-(3-((1R,5S)-3-azabicyclo[3.1.0]hexan-6-yl)-5-chloro-4-oxo-3,4-dihydroquinazolin-2-yl)(cyclopropyl)methyl)amino)-2,6-diaminopyrimidine-5-carbonitrile] | 2 | 0.6 | 650 |  |  | 
Cc1nc(N)nc(N[C@@H](C)c2nc3c(F)ccc(Cl)c3c(=O)n2C2[C@H]3CNC[C@@H]23)c1C#N (stereo in doubt) [Compound 16, 4-(((1S)-1-(3-((1R,5S)-3-azabicyclo[3.1.0]hexan-6-yl)-5-chloro-8-fluoro-4-oxo-3,4-dihydroquinazolin-2-yl)ethyl)amino)-2-amino-6-methylpyrimidine-5-carbonitrile] |  |  |  | 2 | 6 | 2600
C[C@H](Nc1nc(N)nc(N)c1C#N)c1nc2c(F)ccc(Cl)c2c(=O)n1C1[C@H]2CNC[C@@H]12 (stereo in doubt) [Compound 17, 4-(((1S)-1-(3-((1R,5S)-3-azabicyclo[3.1.0]hexan-6-yl)-5-chloro-8-fluoro-4-oxo-3,4-dihydroquinazolin-2-yl)ethyl)amino)-2,6-diaminopyrimidine-5-carbonitrile] |  |  |  | 3 | 4 | 2800
C[C@H](Nc1nc(N)nc(N)c1C#N)c1nc2cccc(Cl)c2c(=O)n1C1[C@H]2CNC[C@@H]12 (stereo in doubt) [Compound 19, 4-(((1S)-1-(3-((1R,5S)-3-azabicyclo[3.1.0]hexan-6-yl)-5-chloro-4-oxo-3,4-dihydroquinazolin-2-yl)ethyl)amino)-2,6-diaminopyrimidine-5-carbonitrile] | 3 | 1 | 1200 |  |  | 
C[C@H](Nc1nc(N)nc(N)c1C#N)c1nc2cccc(Cl)c2c(=O)n1C1C[C@H]2CC[C@@H](C1)N2C (stereo partly drawn) [Compound 4, 2,4-diamino-6-(((1S)-1-(5-chloro-3-((1R,5S)-8-methyl-8-azabicyclo[3.2.1]octan-3-yl)-4-oxo-3,4-dihydroquinazolin-2-yl)ethyl)amino)pyrimidine-5-carbonitrile] |  |  |  | 290 | 82 | > 10000
C[C@H](Nc1ncnc(N)c1C#N)c1nc2cccc(Cl)c2c(=O)n1C1CCN(C)CC1 [Compound 6, (S)-4-amino-6-((1-(5-chloro-3-(1-methylpiperidin-4-yl)-4-oxo-3,4-dihydroquinazolin-2-yl)ethyl)amino)pyrimidine-5-carbonitrile] |  |  |  | 460 | 68 | > 10000
Cc1nc(N)nc(N[C@@H](C)c2nc3cccc(Cl)c3c(=O)n2[C@H]2CCCNCC2)c1C#N [Compound 10, 2-amino-4-(((S)-1-(3-((S)-azepan-4-yl)-5-chloro-4-oxo-3,4-dihydroquinazolin-2-yl)ethyl)amino)-6-methylpyrimidine-5-carbonitrile] |  |  |  |  |  | > 10000
Cc1nc(N)nc(N[C@@H](C)c2nc3cccc(Cl)c3c(=O)n2[C@@H]2CCCNCC2)c1C#N [Compound 11, 2-amino-4-(((S)-1-(3-((R)-azepan-4-yl)-5-chloro-4-oxo-3,4-dihydroquinazolin-2-yl)ethyl)amino)-6-methylpyrimidine-5-carbonitrile] |  |  |  |  |  | > 10000
C[C@H](NC(=O)c1nccnc1N)c1nc2cccc(Cl)c2c(=O)n1N1CCNCC1 [Compound 56, (S)-3-amino-N-(1-(5-chloro-4-oxo-3-(piperazin-1-yl)-3,4-dihydroquinazolin-2-yl)ethyl)pyrazine-2-carboxamide] |  |  |  | 21 | 230 | 
